This is an account of results in patent publication US6551993B1, “Partial agonists at the glycine modulatory site of the NMDA receptor for treating cognitive dysfunction” (Thomas Jefferson University, priority 1999, dated 2003).

Holding throughout (assay type): in vivo, cynomolgus monkeys (Macaca fascicularis)
Series [1] deals with chronic low dose MPTP-treated monkeys. The series is described as follows: spatial delayed response (DR) task. From the text: (§1) Four adult male cynomolgus monkeys (Macaca fascicularis) weighing 5.0-8.0 kg at the beginning of testing were used. All animals had prior behavioral testing experience and had stable cognitive deficits as a result of prior MPTP administration. These animals had previously been used in other pharmacological studies (Schneider J S, Tinker J P, Van Velson M, Menzaghi F, Lloyd G K. Nicotinic acetylcholine receptor agonist SIB-1508Y improves cognitive functioning in chronic low dose MPTP-treated monkeys. J Pharmacol Exp Ther 290: In Press, 1999) but had received no drug treatments for at least 6 mos. prior to the start of this study. This study was approved by the Institutional Animal Care and Use Committee at Thomas Jefferson University and performed in accordance with the NIH Guide for the Care and Use of Laboratory Animals.
(§2) Three of the four animals were tested in a modified Wisconsin General Test Apparatus (WGTA) (Schneider and Kovelowski, 1990); one animal performed computer automated tasks while seated in front of a touch sensitive computer monitor located in a darkened sound-attenuated cubicle. All monkeys performed a spatial delayed response (DR) task, a variable delayed response task (VDR) and a visual discrimination (VD) task.
(§3) The monkeys that performed in the WGTA sat in a restraining chair situated in a sound-attenuating chamber with background masking noise, behind an opaque screen that when raised, allowed access to a sliding tray. The tray contained recessed food wells and identical sliding red Plexiglas covers that served as stimulus plaques that could be displaced by the animal to obtain rewards (raisins, dried fruit, marshmallows). The monkeys were trained to retrieve food from one of the wells after observing the experimenter bait a well. Right and left wells were baited in a balanced order. Each daily session consisted of 30 trials. For VDR testing, five different delay lengths (2, 5, 10, 20 and 30 secs.) were randomly distributed in blocks of trials over the 40 trials that made up a daily testing session. For VD testing, monkeys were trained to discriminate between two patterns (a cross and a horizontal bar) on otherwise identical Plexiglas covers. The position of the positive stimulus (cross) over the left or right food well varied pseudorandomly. The cover had to be displaced in order to retrieve reward from the recessed food well beneath the cover. A test session consisted of 30 trials. Animals were food deprived overnight prior to testing the next day.
(§4) The monkey that performed the computer automated tasks sat in a restraining chair situated in a sound-attenuating chamber with background masking noise, and faced a touch sensitive computer screen with a lever located beneath it. The animal initiated a DR or VDR trial by holding down the lever for one to three seconds. This caused the cue, a filled white circle one inch in diameter, to appear on the right or left side of the screen for two seconds. The cue was then extinguished for a delay period (five seconds for DR; 2, 5, 10, 20, and 30 secs. for VDR) and then identical left and right choice stimuli (filled red circles, one inch in diameter) were presented. The monkey was rewarded with a fruit flavored drink from an automatic dispenser if it touched the response light located on the same side as where the cue appeared. Side of cue presentation was counter-balanced and left/right rewards were distributed pseudorandomly over the 30 trials (40 trials for VDR) that made up a daily testing session. This animal was tested in the morning and fluid deprived overnight prior to testing.
(§5) Animals initially received low doses of MPTP for periods of up to 178 days until stable cognitive deficits (consistent performance deficits of at least 15% on DR) were observed (Schneider et al., 1999). These animals had not received any MPTP for at least 9 months prior to the start of this study. […]

Series [2] shares this test system. The experiment in a line: motor functioning during visual discrimination testing.
Series [3] has the same test system. The series is described as follows: visual discrimination (VD) task.
Source text: as §1, §2
as §3, with “A test session consisted of 30 trials. Animals were food deprived overnight prior to testing the next day.” left out
Animals initially received low doses of MPTP for periods of up to 178 days until stable cognitive deficits (consistent performance deficits of at least 15% on DR) were observed (Schneider et al., 1999). […] Drug effects were determined for D-cycloserine and MK-801 (Research Biochemicals International, Natick, M A) at doses of 100, 320, 1,000, and 8,000 μg/kg and 10, 20 or 32 μg/kg, respectively. […]

Series [4] has the same test system. The experiment in a line: variable delayed response (VDR) task.
Source text: as §1, §2, §3, §4, §5

“Also recorded” adds a separate entry of the source.

Regarding `C[C@]12N[C@H](Cc3ccccc31)c1ccccc12` [MK-801], the DR performance entry in series [1] (10-32 μg/kg i.m., vs. saline) is recorded as “had no effects”. Further, in series [2] (10-32 μg/kg i.m.), the motor functioning entry is recorded as “did not significantly impair motor functioning”. For the same compound, in series [3] (10-32 μg/kg i.m., all animals, p<0.01 vs. saline, FIG. 2), the VD performance result is reported as “significantly disrupted; also recorded: significant impairment”.

Consider `N[C@@H]1CONC1=O` [D-cycloserine], for which the DR performance entry in series [1] (100 μg/kg i.m., approx. 30 min before test, vs. saline) is “Neither the low (100 μg/kg) nor high (8,000 μg/kg) doses of D-cycloserine had any effect”; in series [1] (320 μg/kg i.m., approx. 30 min before test, vs. saline (t=6.73, p<0.01)), “significantly improving task performance”; in series [1] (1,000 μg/kg i.m., approx. 30 min before test, vs. saline (t=3.76, p<0.05)), “significantly improving task performance”; in series [1] (8,000 μg/kg i.m., approx. 30 min before test, vs. saline), “Neither the low (100 μg/kg) nor high (8,000 μg/kg) doses of D-cycloserine had any effect; also recorded: neither improvement nor further disruption”. Besides, the “MPTP-induced DR performance deficit” value in series [1] (dose response 100 to 1000 μg/kg i.m., 4 animals, FIG. 1A) is recorded as “at least partially corrected”. The motor functioning entry in series [2] (8,000 μg/kg i.m.) was “did not significantly impair motor functioning”. In addition, the VD performance entry in series [3] (8,000 μg/kg i.m., all animals, p<0.01 vs. saline, FIG. 2) is given as “significantly disrupted; also recorded: significantly impaired; also recorded: deficits induced in VD performance”; in series [3] (100 to 1,000 μg/kg i.m.) it was “had no effects”. In series [3] (low doses (10, 32 or 100 μg/kg)), the “deficits in VD performance” value is on record as “not with low doses”. The VDR performance result in series [4] (100 μg/kg i.m., all delays (2, 5, 10, 20, 30 sec)) was “had no effects”; in series [4] (320 μg/kg i.m., at 2, 5, and 20 sec. delays) it was “significantly improved performance”; in series [4] (1,000 μg/kg i.m., at 2, 5, and 10 sec delays), “significantly improved performance”; in series [4] (8,000 μg/kg i.m.) it was “neither improvement nor further disruption”; in series [4] (30 sec. delay, any dose) it was “None of the doses of D-cycloserine improved performance”; in series [4] (best (most facilitating) dose for each animal vs. saline, FIG. 1B) it was “significantly improved performance at all but the longest delay”.
